Patent US20210251237A1, “PLATFORM FOR DEVELOPING SOIL-BORNE PLANT PATHOGEN INHIBITING MICROBIAL CONSORTIA” (priority 2018, published 2021)
Read-outs that look alike come from different tables or passages of the source. Marks after values point to notes of the source that are not given here.

What was measured:
[1] = test system: Sclerotinia sclerotiorum; assay: Pathogen suppressive activity plate assay (zone of inhibition); type: cell-based; details: for zone of inhibition: Table 1, pathogen isolate P19; for mean inhibitory zone size: Table 4
[2] = test system: Fusarium graminearum; type: cell-based; design: key to pathogen suppression (symbol): + refers to instances where there is some evidence for inhibition immediately over the surface of the dotted strain, but no clear inhibition zone beyond the dotted colony's edge; details: for zone of inhibition: Table 1; for pathogen suppression (symbol) / mean inhibitory zone size: Table 4
[3] = test system: Fusarium virguliforme; assay: Pathogen suppressive activity plate assay (zone of inhibition); type: cell-based; details: Table 4
[4] = test system: potato scab; assay: Potato field trials: percent scab control; type: in vivo; design: concentration or dose not given beside the values
[5] = test system: Fusarium oxysporum; assay: Pathogen suppressive activity plate assay (zone of inhibition); type: cell-based; details: for zone of inhibition: Table 1; for mean inhibitory zone size: Table 4
[6] = test system: Pythium ultimum var. sporangiferum; assay: as above; type: cell-based; details: for zone of inhibition: Table 1, pathogen isolate P58; for mean inhibitory zone size: Table 4, pathogen target isolate P58
[7] = test system: Rhizoctonia solani; assay: as above; type: cell-based; details: for zone of inhibition: Table 1, pathogen isolate P6; for mean inhibitory zone size: Table 4
[8] = test system: Phytophthora sojae; assay: as above; type: cell-based; details: for zone of inhibition: Table 1, pathogen isolate P52; for mean inhibitory zone size: Table 4, pathogen target isolate P52
[9] = test system: clinical antimicrobials (antibiotic discs); assay: Antibiotic disc resistance/susceptibility assay of microbial isolates; type: cell-based
[10] = test system: Phytophthora medicaginis; assay: Pathogen suppressive activity plate assay (zone of inhibition); type: cell-based; details: for zone of inhibition: Table 1; for mean inhibitory zone size: Table 4
[11] = test system: GS1, PS1 and PS3 (overlaid isolates); assay: Mutual inhibition activity among GS1, PS1 and PS3; type: cell-based; details: for inhibition zone size: mild inhibition
Protocol: Each of the microbes—GS1, PS1 and PS3—was grown in the presence of every other isolate (i.e., GS1 with PS1; GS1 with PS3; and PS1 with PS3). Briefly, isolates GS1, PS1 and PS3 were dotted onto the center of individual petri dishes and allowed to grow for 3 days. Dotted isolates were then killed by placing petri dishes over a chloroform-filled watch glass in a safety cabinet for one hour. Subsequently, overlays of the other two isolates spread across the entire petri dish surface. In this way, each isolate was tested as a potential inhibitor (dotted isolates) in combination with every isolate as a target (overlaid isolates). The growth of the microbial isolates was evaluated for the presence or absence of zones of inhibition at the interphase between the bacterial isolates. […] Results from this analysis show the potential for isolates to coexist without inhibiting one another.

[12] = test system: F. culmorum; assay: Pathogen suppressive activity plate assay (zone of inhibition); type: cell-based; details: Table 1; pathogen isolate P61
[13] = test system: random collection of Streptomyces from field soils; assay: Enhancement of antibiotic production in field-soil Streptomyces; type: cell-based
[14] = test system: GS1 and PS3 (inhibition zones on Bacillus lawns); assay: Antimicrobial signaling/responsiveness among GS1, PS1, PS3; type: cell-based; details: increased inhibition zones around GS1 and PS3 vs single inoculant controls

Substance: Brevibacillus laterosporus [PS3]
- zone of inhibition [1]: 11.48 mm
- mean inhibitory zone size ([1]; pathogen target isolate P16): 4.517 mm
- mean inhibitory zone size ([1]; pathogen target isolate P17): 5.567 mm
- mean inhibitory zone size ([1]; pathogen target isolate P18): 4.975 mm
- mean inhibitory zone size ([1]; pathogen target isolate P19): 5.8 mm
- zone of inhibition ([2]; pathogen isolate P31): 10.35 mm
- zone of inhibition ([2]; pathogen isolate P34): 14.58 mm
- pathogen suppression (symbol) ([2]; pathogen target isolate P30): +**
- pathogen suppression (symbol) ([2]; pathogen target isolate P31): +
- pathogen suppression (symbol) ([2]; pathogen target isolate P32): +
- pathogen suppression (symbol) ([2]; pathogen target isolate P33): +
- pathogen suppression (symbol) ([2]; pathogen target isolate P34): +
- pathogen suppression (symbol) ([2]; pathogen target isolate P35): +
- mean inhibitory zone size ([3]; pathogen target isolate P20): 5.2 mm
- mean inhibitory zone size ([3]; pathogen target isolate P21): 9.5 mm
- mean inhibitory zone size ([3]; pathogen target isolate P22): 8.975 mm
- mean inhibitory zone size ([3]; pathogen target isolate P23): 6.175 mm
- Percent Control (reduction in scab severity vs non-inoculated plots) ([4]; experiment BPP, disease on non-inoculated tubers 22.2): 27%
- Percent Control (reduction in scab severity vs non-inoculated plots) ([4]; experiment BSP, disease on non-inoculated tubers 24.3): 40%
- Percent Control (reduction in scab severity vs non-inoculated plots) ([4]; experiment BWP, disease on non-inoculated tubers 26.7): 30%
- Percent Control (reduction in scab severity vs non-inoculated plots) ([4]; experiment RPP, disease on non-inoculated tubers 15.6): 23%
- Percent Control (reduction in scab severity vs non-inoculated plots) ([4]; experiment RSCRG1, disease on non-inoculated tubers 28.1): 34%
- Percent Control (reduction in scab severity vs non-inoculated plots) ([4]; experiment RSP, disease on non-inoculated tubers 8.8): 42%
- zone of inhibition ([5]; pathogen isolate P27): 0 mm
- zone of inhibition ([5]; pathogen isolate P29): 0 mm
- mean inhibitory zone size ([5]; pathogen target isolate P25): 3.725 mm
- mean inhibitory zone size ([5]; pathogen target isolate P26): 4.1 mm
- mean inhibitory zone size ([5]; pathogen target isolate P28): 5.6 mm
- mean inhibitory zone size ([5]; pathogen target isolate P29): 4.225 mm
- zone of inhibition [6]: 3.73 mm
- mean inhibitory zone size [6]: 6.6 mm
- zone of inhibition [7]: 12.25 mm
- mean inhibitory zone size ([7]; pathogen target isolate P5): 3.25 mm
- mean inhibitory zone size ([7]; pathogen target isolate P6): 1.7875 mm
- mean inhibitory zone size ([7]; pathogen target isolate P12): 1.5 mm
- zone of inhibition [8]: 0 mm
- mean inhibitory zone size [8]: 10.3 mm
- Antibiotic resistance characteristics ([9]; Amoxicillin Clavulanate): MR (MR-moderately resistant (1-5 mm))
- Antibiotic resistance characteristics ([9]; Chloramphenicol): MS (MS-moderately susceptible (6-10 mm))
- Antibiotic resistance characteristics ([9]; Erythromycin): S (S-susceptible (>10 mm))
- Antibiotic resistance characteristics ([9]; Kanamycin): S (S-susceptible (>10 mm))
- Antibiotic resistance characteristics ([9]; Novobiocin 5): S (S-susceptible (>10 mm))
- Antibiotic resistance characteristics ([9]; Novobiocin 30): S (S-susceptible (>10 mm))
- Antibiotic resistance characteristics ([9]; Rifampin): MR (MR-moderately resistant (1-5 mm))
- Antibiotic resistance characteristics ([9]; Streptomycin): S (S-susceptible (>10 mm))
- Antibiotic resistance characteristics ([9]; Tetracycline): MR (MR-moderately resistant (1-5 mm))
- Antibiotic resistance characteristics ([9]; Vancomycin 5): MS (MS-moderately susceptible (6-10 mm))
- Antibiotic resistance characteristics ([9]; Vancomycin 30): S (S-susceptible (>10 mm))
- zone of inhibition ([10]; pathogen isolate P43): 12.55 mm
- zone of inhibition ([10]; pathogen isolate P44): 6.53 mm
- mean inhibitory zone size ([10]; pathogen target isolate P43): 5.6 mm
- mean inhibitory zone size ([10]; pathogen target isolate P44): 9.125 mm
- inhibition of the other members of the combination [11]: Neither isolate PS3 nor GS3 inhibit
- zone of inhibition [12]: 5.48 mm

Substance: Streptomyces sp. 3211.1 [PS1]
- zone of inhibition [1]: 0 mm
- mean inhibitory zone size ([1]; pathogen target isolate P17): 12.8 mm
- mean inhibitory zone size ([1]; pathogen target isolate P18): 3.25 mm
- mean inhibitory zone size ([1]; pathogen target isolate P19): 0 mm
- more effective than other isolates in enhancing antibiotic production [13]: ~50%
- share of a random collection of Streptomyces whose antibiotic production is enhanced [13]: 30%
- zone of inhibition ([2]; pathogen isolate P31): 3.05 mm
- zone of inhibition ([2]; pathogen isolate P34): 0 mm
- mean inhibitory zone size ([2]; pathogen target isolate P30): 0 mm
- mean inhibitory zone size ([2]; pathogen target isolate P31): 3.05 mm
- mean inhibitory zone size ([2]; pathogen target isolate P32): 0 mm
- mean inhibitory zone size ([2]; pathogen target isolate P33): 0 mm
- mean inhibitory zone size ([2]; pathogen target isolate P34): 0 mm
- mean inhibitory zone size ([2]; pathogen target isolate P35): 0 mm
- mean inhibitory zone size ([3]; pathogen target isolate P20): 0 mm
- mean inhibitory zone size ([3]; pathogen target isolate P21): 0 mm
- mean inhibitory zone size ([3]; pathogen target isolate P22): 0 mm
- mean inhibitory zone size ([3]; pathogen target isolate P23): 3.58 mm
- zone of inhibition ([5]; pathogen isolate P27): 0 mm
- zone of inhibition ([5]; pathogen isolate P29): 0 mm
- mean inhibitory zone size ([5]; pathogen target isolate P25): 0 mm
- mean inhibitory zone size ([5]; pathogen target isolate P26): 0 mm
- mean inhibitory zone size ([5]; pathogen target isolate P28): 0 mm
- mean inhibitory zone size ([5]; pathogen target isolate P29): 0 mm
- effect on antibiotic production by the two other isolates [14]: enhance antibiotic production
- zone of inhibition [6]: 0 mm
- mean inhibitory zone size [6]: 0 mm
- zone of inhibition [7]: 0 mm
- mean inhibitory zone size ([7]; pathogen target isolate P5): 0 mm
- mean inhibitory zone size ([7]; pathogen target isolate P6): 0 mm
- mean inhibitory zone size ([7]; pathogen target isolate P12): 0 mm
- zone of inhibition [8]: 0 mm
- mean inhibitory zone size [8]: 0 mm
- Antibiotic resistance characteristics ([9]; Amoxicillin Clavulanate): MR (MR-moderately resistant (1-5 mm))
- Antibiotic resistance characteristics ([9]; Chloramphenicol): R (R-resistant (0 inhibition zone))
- Antibiotic resistance characteristics ([9]; Erythromycin): MR (MR-moderately resistant (1-5 mm))
- Antibiotic resistance characteristics ([9]; Kanamycin): S (S-susceptible (>10 mm))
- Antibiotic resistance characteristics ([9]; Novobiocin 5): MR (MR-moderately resistant (1-5 mm))
- Antibiotic resistance characteristics ([9]; Novobiocin 30): MS (MS-moderately susceptible (6-10 mm))
- Antibiotic resistance characteristics ([9]; Penicillin): R (R-resistant (0 inhibition zone))
- Antibiotic resistance characteristics ([9]; Rifampin): MR (MR-moderately resistant (1-5 mm))
- Antibiotic resistance characteristics ([9]; Streptomycin): MS (MS-moderately susceptible (6-10 mm))
- Antibiotic resistance characteristics ([9]; Tetracycline): MR (MR-moderately resistant (1-5 mm))
- Antibiotic resistance characteristics ([9]; Vancomycin 5): MS (MS-moderately susceptible (6-10 mm))
- Antibiotic resistance characteristics ([9]; Vancomycin 30): MS (MS-moderately susceptible (6-10 mm))
- zone of inhibition ([10]; pathogen isolate P43): 0 mm
- zone of inhibition ([10]; pathogen isolate P44): 0 mm
- mean inhibitory zone size ([10]; pathogen target isolate P43): 0 mm
- mean inhibitory zone size ([10]; pathogen target isolate P44): 0 mm
- inhibition zone size ([11]; against GS1): < 5 mm
- inhibition zone size ([11]; against GS3 (so in the source)): < 5 mm
- zone of inhibition [12]: 0 mm
